Reference: article PMC6928947, “Benzo[b]tellurophenes as a Potential Histone H3 Lysine 9 Demethylase (KDM4) Inhibitor” (International Journal of Molecular Sciences, 2019)

Molecular target: T1, KDM4A (Homo sapiens, UniProt O75164)
T1 sequence (O75164 2-1064): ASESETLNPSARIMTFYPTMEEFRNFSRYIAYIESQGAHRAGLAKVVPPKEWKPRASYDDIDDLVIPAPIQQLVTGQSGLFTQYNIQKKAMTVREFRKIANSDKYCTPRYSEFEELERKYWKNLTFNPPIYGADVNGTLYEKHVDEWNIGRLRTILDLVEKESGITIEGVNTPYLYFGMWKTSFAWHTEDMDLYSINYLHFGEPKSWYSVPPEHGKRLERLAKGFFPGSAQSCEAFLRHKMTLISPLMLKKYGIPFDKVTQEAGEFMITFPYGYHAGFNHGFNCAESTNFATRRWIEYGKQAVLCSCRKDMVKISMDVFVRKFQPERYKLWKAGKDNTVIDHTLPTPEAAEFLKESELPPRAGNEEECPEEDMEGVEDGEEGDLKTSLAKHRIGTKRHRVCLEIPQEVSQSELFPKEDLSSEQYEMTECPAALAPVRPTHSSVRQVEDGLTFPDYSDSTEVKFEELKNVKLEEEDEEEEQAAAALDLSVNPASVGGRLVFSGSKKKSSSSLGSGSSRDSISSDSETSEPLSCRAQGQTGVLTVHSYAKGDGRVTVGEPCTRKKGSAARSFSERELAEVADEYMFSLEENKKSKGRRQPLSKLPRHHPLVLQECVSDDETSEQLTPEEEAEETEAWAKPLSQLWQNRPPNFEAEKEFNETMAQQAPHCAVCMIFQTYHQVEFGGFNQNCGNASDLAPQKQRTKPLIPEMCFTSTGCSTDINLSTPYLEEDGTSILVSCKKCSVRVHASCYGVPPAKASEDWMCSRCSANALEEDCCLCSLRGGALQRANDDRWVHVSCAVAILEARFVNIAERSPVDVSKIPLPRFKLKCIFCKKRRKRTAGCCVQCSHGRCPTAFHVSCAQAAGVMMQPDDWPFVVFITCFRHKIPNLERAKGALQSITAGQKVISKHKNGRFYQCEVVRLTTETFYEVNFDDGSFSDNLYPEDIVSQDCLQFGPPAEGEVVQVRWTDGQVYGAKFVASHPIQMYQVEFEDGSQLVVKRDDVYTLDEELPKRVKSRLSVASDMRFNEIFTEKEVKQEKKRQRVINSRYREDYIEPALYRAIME
Assay: FDH-coupled demethylase assay, recombinant KDM4A with H3K9me3 peptide (Cayman kit […])
Assay type: biochemical

SMILES: CC(C)(C)OC(=O)NCc1cc2ccccc2[te]1 [1c, tert-Butyl benzo[b]tellurophen-2-ylmethylcarbamate]
- IC50: 30.2 ± 4.6 µM
